This is an account of results in patent US10480032B2, “Use of EI24 gene” (UNIVERSITY-INDUSTRY FOUNDATION, YONSEI UNIVERSITY, priority 2016, dated 2019).

The test system of this series is PC9-GR cells expressing exogenous EI24 (9GR-O/E). Nature of the series: MTT assay in gefitinib-resistant PC9-GR cells over-expressing EI24. Particulars: 20 μM gefitinib, ectopic expression of EI24 in PC9-GR, FIG. 3. Format: cell-based, human. How it is done: A PC9 EGFR-mutant NSCLC cell line and its gefitinib-resistant derivative (PC9-GR) are described in a document by S. M. Kim et al. (Mol. Cancer Ther. vol. 11, pp. 2254-2264(2012)). All cells were cultured in an RPMI 1640 medium supplemented with 10% […]. A human EI24-overexpressing cell line and a control cell line were established by transfection with a plasmid including FLAG-tagged EI24 and the corresponding empty vector (pcDNA3.1), respectively. Human EI24-knockdown cell lines were established using a method described in a document by J. M. Choi et al. (Oncotarget, vol. 4, pp. 2383-2396(2013)). The shRNA sequences are as follows:
Cells were seeded at a density of 3×10^4 cells/well in a 96-well culture plate and incubated for 24 hours. The cells were exposed to drugs for 48 hours, and 0.4 mg/ml MTT was added until reaching a mid-height of each well. After incubating at 37° C. for 4 hours, formazan crystals in viable cells were solubilized with 100 μl of dimethyl sulfoxide (DMSO). The optical density of the formazan product was read at 590 nm on a microreader (Bio-Rad). All experiments were repeated three times.
In addition, the EI24 gene was over-expressed in a gefitinib-resistant cell line (PC9-GR) among PC9 cell lines and gefitinib was added thereto, and EI24 expression and apoptosis were measured through immunoblotting analysis and MTT assay, respectively. […]
A general note: Tetrazolium assays rely on reduction of a dye to a coloured formazan, in cell work by metabolically active cells.

In the case of `COc1cc2ncnc(Nc3ccc(F)c(Cl)c3)c2cc1OCCCN1CCOCC1` [gefitinib], the cell viability entry is recorded as “up to 18%”.
